≈ marks a conversion by molar mass, not a printed value.
Tests used:
Format in all cases: functional
[1] = system: Staphylococcus aureus; experiment: Antibacterial activity against Staphylococcus aureus Smith
[2] = system: Streptococcus pneumoniae; experiment: Antibacterial activity against Streptococcus pneumoniae IID554; conditions: Streptococcus pneumoniae, IID554; read-out: MIC
[3] = system: Enterococcus faecalis; experiment: Antibacterial activity against Enterococcus faecalis ATCC 29212; conditions: Enterococcus faecalis, ATCC 29212; read-out: MIC
[4] = system: Escherichia coli; experiment: Antibacterial activity against Escherichia coli ATCC 25922; conditions: Escherichia coli, ATCC 25922; read-out: MIC
[5] = system: Acinetobacter baumannii; experiment: Antibacterial activity against Acinetobacter baumannii IID876; conditions: Acinetobacter baumannii, IID876; read-out: MIC
[6] = system: Pseudomonas aeruginosa; experiment: Antibacterial activity against Pseudomonas aeruginosa PAO1; conditions: Pseudomonas aeruginosa, PAO1; read-out: MIC
[7] = system: Moraxella catarrhalis; experiment: Antibacterial activity against Moraxella catarrhalis ATCC 25238; conditions: Moraxella catarrhalis, ATCC 25238; read-out: MIC
[8] = system: Enterococcus faecium; experiment: Antibacterial activity against VanA-type vancomycin-resistant Enterococcus faecium A2373; conditions: Enterococcus faecium, A2373; read-out: MIC
[9] = system: Staphylococcus aureus; experiment: Ratio of MIC for quinolone-resistant Staphylococcus aureus MS5935 to MIC for quinolone-sensitive Staphylococcus aureus
[10] = Staphylococcus aureus, Smith, read-out: MIC

SMILES | MIC [1, 10] | MIC [2] | MIC [3] | MIC [4] | MIC [5] | MIC [6] | MIC [7] | MIC [8] | MIC [1] | Ratio [9]
O=c1ccc2ncc(F)c3c2n1C[C@@]3(O)CC12CCC(NCc3ccc4c(n3)OCCO4)(CC1)CO2 | 2 µg/mL (≈ 4.04 µM) | 2 µg/mL (≈ 4.04 µM) | 8 µg/mL (≈ 16.2 µM) | 32 µg/mL (≈ 64.7 µM) | 32 µg/mL (≈ 64.7 µM) | 32 µg/mL (≈ 64.7 µM) | 32 µg/mL (≈ 64.7 µM) | 32 µg/mL (≈ 64.7 µM) |  | 
O=C1COc2ccc(C(=O)NC34CCC(C[C@]5(O)Cn6c(=O)ccc7ncc(F)c5c76)(CC3)OC4)nc2N1 | 1 µg/mL (≈ 1.92 µM) | 4 µg/mL (≈ 7.67 µM) | 8 µg/mL (≈ 15.3 µM) | 32 µg/mL (≈ 61.4 µM) | 16 µg/mL (≈ 30.7 µM) | 32 µg/mL (≈ 61.4 µM) |  | 16 µg/mL (≈ 30.7 µM) | 0.25 µg/mL (≈ 0.479 µM) | <4
O=c1ccc2ncc(F)c3c2n1C[C@@]3(O)CC12CCC(NC/C=C/c3c(F)cccc3F)(CC1)CO2 | 0.063 µg/mL (≈ 0.127 µM) | 0.25 µg/mL (≈ 0.502 µM) | 4 µg/mL (≈ 8.04 µM) | 16 µg/mL (≈ 32.2 µM) | 2 µg/mL (≈ 4.02 µM) | 32 µg/mL (≈ 64.3 µM) |  | 8 µg/mL (≈ 16.1 µM) |  | <4
O=C1CSc2ccc(CNC34CCC(C[C@]5(O)Cn6c(=O)ccc7ncc(F)c5c76)(CC3)OC4)nc2N1 | 0.25 µg/mL (≈ 0.477 µM) | 0.5 µg/mL (≈ 0.955 µM) | 2 µg/mL (≈ 3.82 µM) | 4 µg/mL (≈ 7.64 µM) | 2 µg/mL (≈ 3.82 µM) | 16 µg/mL (≈ 30.6 µM) |  | 8 µg/mL (≈ 15.3 µM) |  | 
O=c1ccc2ncc(F)c3c2n1C[C@@]3(O)CC12CCC(NCc3ccc4c(c3)OCO4)(CC1)CO2 | 0.5 µg/mL (≈ 1.04 µM) | 0.5 µg/mL (≈ 1.04 µM) | 4 µg/mL (≈ 8.34 µM) | 32 µg/mL (≈ 66.7 µM) | 4 µg/mL (≈ 8.34 µM) | 32 µg/mL (≈ 66.7 µM) | 4 µg/mL (≈ 8.34 µM) | 16 µg/mL (≈ 33.4 µM) |  | 
O=c1[nH]c2c(F)ccc(F)c2cc1CNC12CCC(C[C@]3(O)Cn4c(=O)ccc5ncc(F)c3c54)(CC1)OC2 | 2 µg/mL (≈ 3.71 µM) | 2 µg/mL (≈ 3.71 µM) | 32 µg/mL (≈ 59.4 µM) | 64 µg/mL (≈ 119 µM) | 64 µg/mL (≈ 119 µM) | 64 µg/mL (≈ 119 µM) |  | 64 µg/mL (≈ 119 µM) |  | <4
O=c1ccc2ncc(F)c3c2n1C[C@@]3(O)CC12CCC(NCc3cc4c(cc3F)OCCO4)(CC1)CO2 | 0.25 µg/mL (≈ 0.489 µM) | 0.5 µg/mL (≈ 0.977 µM) | 2 µg/mL (≈ 3.91 µM) | 32 µg/mL (≈ 62.6 µM) | 8 µg/mL (≈ 15.6 µM) | 32 µg/mL (≈ 62.6 µM) | 8 µg/mL (≈ 15.6 µM) | 8 µg/mL (≈ 15.6 µM) |  | 
O=c1ccc2ncc(F)c3c2n1C[C@@]3(O)CC12CCC(NC/C=C/c3cc(F)ccc3F)(CC1)CO2 | 0.063 µg/mL (≈ 0.127 µM) | 0.25 µg/mL (≈ 0.502 µM) | 4 µg/mL (≈ 8.04 µM) | 4 µg/mL (≈ 8.04 µM) | 0.25 µg/mL (≈ 0.502 µM) | 8 µg/mL (≈ 16.1 µM) |  | 8 µg/mL (≈ 16.1 µM) |  | <4
O=c1ccc2ncc(F)c3c2n1C[C@@]3(O)CC12CCC(NC/C=C/c3ccccn3)(CC1)CO2 | 1 µg/mL (≈ 2.16 µM) | 4 µg/mL (≈ 8.65 µM) | 32 µg/mL (≈ 69.2 µM) | 64 µg/mL (≈ 138 µM) | 32 µg/mL (≈ 69.2 µM) | 64 µg/mL (≈ 138 µM) |  | 64 µg/mL (≈ 138 µM) |  | <4
O=c1ccc2ncc(F)c3c2n1C[C@@]3(O)CC12CCC(NCc3ccc4c(c3)OCCO4)(CC1)CO2 | 0.12 µg/mL (≈ 0.243 µM) | 0.25 µg/mL (≈ 0.507 µM) | 2 µg/mL (≈ 4.05 µM) | 16 µg/mL (≈ 32.4 µM) | 4 µg/mL (≈ 8.1 µM) | 32 µg/mL (≈ 64.8 µM) | 0.5 µg/mL (≈ 1.01 µM) | 4 µg/mL (≈ 8.1 µM) |  | 
O=c1ccc2ncc(F)c3c2n1C[C@@]3(O)CC12CCC(NC/C=C/c3ccccc3)(CC1)CO2 | 0.125 µg/mL (≈ 0.271 µM) | 0.5 µg/mL (≈ 1.08 µM) | 4 µg/mL (≈ 8.67 µM) | 32 µg/mL (≈ 69.3 µM) | 4 µg/mL (≈ 8.67 µM) | 64 µg/mL (≈ 139 µM) |  | 8 µg/mL (≈ 17.3 µM) |  | 
O=c1ccc2ncc(F)c3c2n1C[C@@]3(O)CC12CCC(NC/C=C/c3ccc(F)cc3)(CC1)CO2 | 0.5 µg/mL (≈ 1.04 µM) | 4 µg/mL (≈ 8.34 µM) | 16 µg/mL (≈ 33.4 µM) | 64 µg/mL (≈ 133 µM) | 32 µg/mL (≈ 66.7 µM) | 64 µg/mL (≈ 133 µM) |  | 32 µg/mL (≈ 66.7 µM) |  | 
O=c1ccc2ncc(F)c3c2n1C[C@@]3(O)CC12CCC(NCc3ncc4c(c3Cl)OCCO4)(CC1)CO2 | 2 µg/mL (≈ 3.78 µM) | 1 µg/mL (≈ 1.89 µM) | 8 µg/mL (≈ 15.1 µM) | 32 µg/mL (≈ 60.5 µM) | 32 µg/mL (≈ 60.5 µM) | 32 µg/mL (≈ 60.5 µM) | 32 µg/mL (≈ 60.5 µM) | 32 µg/mL (≈ 60.5 µM) |  | 
O=C1COc2ccc(CNC34CCC(C[C@]5(O)Cn6c(=O)ccc7ncc(F)c5c76)(CC3)OC4)cc2N1 | 1.5 µg/mL (≈ 2.96 µM) | 1 µg/mL (≈ 1.97 µM) | 4 µg/mL (≈ 7.9 µM) | 6 µg/mL (≈ 11.8 µM) | 8 µg/mL (≈ 15.8 µM) | 16 µg/mL (≈ 31.6 µM) |  | 16 µg/mL (≈ 31.6 µM) |  | 
O=c1ccc2ncc(F)c3c2n1C[C@@]3(O)CC12CCC(NCc3cc(Cl)c4c(c3Cl)OCCO4)(CC1)CO2 | 0.5 µg/mL (≈ 0.889 µM) | 0.25 µg/mL (≈ 0.445 µM) | 4 µg/mL (≈ 7.11 µM) | 32 µg/mL (≈ 56.9 µM) | 32 µg/mL (≈ 56.9 µM) | 32 µg/mL (≈ 56.9 µM) | 2 µg/mL (≈ 3.56 µM) | 16 µg/mL (≈ 28.4 µM) |  | 
O=C1COc2cnc(CNC34CCC(C[C@]5(O)Cn6c(=O)ccc7ncc(F)c5c76)(CC3)OC4)cc2N1 | 4 µg/mL (≈ 7.88 µM) | 4 µg/mL (≈ 7.88 µM) | 8 µg/mL (≈ 15.8 µM) | 16 µg/mL (≈ 31.5 µM) | 32 µg/mL (≈ 63.1 µM) | 32 µg/mL (≈ 63.1 µM) |  | 32 µg/mL (≈ 63.1 µM) |  | 
O=c1ccc2ncc(F)c3c2n1C[C@@]3(O)CC12CCC(NCc3ccc4c(c3)OC(F)(F)O4)(CC1)CO2 | 0.25 µg/mL (≈ 0.485 µM) | 1 µg/mL (≈ 1.94 µM) | 8 µg/mL (≈ 15.5 µM) | 32 µg/mL (≈ 62.1 µM) | 32 µg/mL (≈ 62.1 µM) | 32 µg/mL (≈ 62.1 µM) | 4 µg/mL (≈ 7.76 µM) | 32 µg/mL (≈ 62.1 µM) |  | 
O=c1ccc2ncc(F)c3c2n1C[C@@]3(O)CC12CCC(NCc3ccc4c(n3)NCCO4)(CC1)CO2 | 2 µg/mL (≈ 4.05 µM) | 1 µg/mL (≈ 2.03 µM) | 8 µg/mL (≈ 16.2 µM) | 32 µg/mL (≈ 64.8 µM) | 8 µg/mL (≈ 16.2 µM) | 32 µg/mL (≈ 64.8 µM) | 4 µg/mL (≈ 8.1 µM) | 16 µg/mL (≈ 32.4 µM) |  | 
